Experimental data from publication PMC7792944, “Pharmacological Characterization of µ-Opioid Receptor Agonists with Biased G Protein or β-Arrestin Signaling, and Computational Study of Conformational Changes during Receptor Activation” (Molecules, 2020).
Where “and” joins values, the source holds several entries; their conditions need not be identical. Equal values may be shown once. Bridge positions count the residues as written; N and C are the ends. Square brackets hold non-standard residues; d marks the D form. Ends that are not written are not given here. Peptide text beside a SMILES is read from it. Phe(4-CF3) = N[C@@H](Cc1ccc(C(F)(F)F)cc1)C(=O)O; Dmt = Cc1cc(O)cc(C)c1C[C@H](N)C(=O)O

What was measured:
[1] = tested on: human recombinant KOP; design: method as in ref [44], [45] (C-33); conditions: ref [44], [45] (C-33), cited from earlier work; for KOP pEC50 (CL95%): calcium signaling via chimeric G proteins; for KOP α±SEM: maximal effect, calcium signaling
[2] = biological target: MOP; design: method as in ref [44] (F-81), [45] (C-33); conditions: [3H]DAMGO, human opioid receptor membranes; ref [44] (F-81), [45] (C-33); cited from earlier work
[3] = tested on: DPP IV; design: method as in ref [44] (F-81), [45] (C-33); conditions: ref [44] (F-81), [45] (C-33); cited from earlier work
[4] = tested on: human recombinant MOP; conditions: cited from earlier work; for MOP pEC50 (CL95%): calcium signaling via chimeric G proteins, ref [44] (EM-2, DPDPE, Dyn A, F-81); for MOP pEC50 (CL95%) / MOP α±SEM: [45] (C-33); for MOP α±SEM: maximal effect, calcium signaling, ref [44]
[5] = biological target: KOP; design: method as in ref [44] (F-81), [45] (C-33); conditions: [3H]U-69593, human opioid receptor membranes; ref [44] (F-81), [45] (C-33); cited from earlier work
[6] = tested on: MOP/G-protein; conditions: BRET, [45] (C-33), cited from earlier work; for MOP/G-protein α±SEM: maximal effect, ref [44]; for MOP/G-protein pEC50 (CL95%): ref [44] (EM-2, F-81)
[7] = tested on: human recombinant DOP; design: method as in ref [44], [45] (C-33); conditions: ref [44], [45] (C-33), cited from earlier work; for DOP pEC50 (CL95%): calcium signaling via chimeric G proteins; for DOP α±SEM: maximal effect, calcium signaling
[8] = tested on: MOP/β-arrestin 2; conditions: cited from earlier work; for MOP/β-arrestin 2 pEC50 (CL95%): ref [44] (EM-2, F-81)
[9] = biological target: DOP; conditions: read-out: Ki DOP; [3H]deltorphin-2, human opioid receptor membranes; ref [44] (F-81), [45] (C-33); cited from earlier work
[10] = design: method as in ref [44] (F-81), [45] (C-33); conditions: ref [44] (F-81), [45] (C-33); cited from earlier work
[11] = biological target: T1, human MOP (Homo sapiens, UniProt P35372); experiment: [35S]GTPγS binding assay (G-protein activation) in CHO-hMOP cell membranes; assay type: biochemical; conditions: for %Stim: efficacy normalized to the maximum stimulation caused by EM-1
T1 construct: originator Prof L. Toll, SRI International; host or cells: CHO (CHO-hMOP), membranes
T1 sequence (P35372 whole entry): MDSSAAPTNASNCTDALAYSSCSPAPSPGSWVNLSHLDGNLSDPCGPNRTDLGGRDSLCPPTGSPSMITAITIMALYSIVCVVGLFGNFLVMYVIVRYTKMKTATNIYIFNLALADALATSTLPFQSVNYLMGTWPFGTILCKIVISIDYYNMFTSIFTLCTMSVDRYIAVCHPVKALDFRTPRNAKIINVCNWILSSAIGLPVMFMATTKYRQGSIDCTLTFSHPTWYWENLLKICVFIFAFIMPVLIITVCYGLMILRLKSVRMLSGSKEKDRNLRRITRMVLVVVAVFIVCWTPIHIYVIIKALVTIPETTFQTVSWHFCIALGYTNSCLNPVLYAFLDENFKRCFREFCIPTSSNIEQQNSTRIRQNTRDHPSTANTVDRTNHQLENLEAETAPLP
Protocol: Herein, for the first time the biased agonism of F-81 and C-33 is analyzed by [^35S]GTPγS binding assay (Table 1) and PathHunter enzyme complementation assay (Table 2). [^35S]GTPγS binding assay, which characterizes ligand-driven G protein activation, was performed in CHO cells stably expressing the human MOP [46, 47].
[^35S]GTPγS binding assay. CHO cells stably expressing the human MOP receptor (in brief, CHO-hMOP cells, provided by Prof G. Calo, University of Ferrara; originator was Prof L. Toll, SRI International, Menlo Park, CA, USA) were grown in Hams F12 containing streptomycin (100 μg/mL), fungizone 2.5 μg/mL), penicillin (100 IU/mL) and 10% fetal bovine serum (FBS). Stock medium containing G418 (200 μg/mL) was used to maintain CHO-hMOP expression. Experiments were performed according to the literature. Cell membranes (5–10 µg) were incubated at 30 °C with 0.05 nM [^35S]GTPγS (PekinElmer, 549 Albany St, Boston, MA 02118, US), 10 µM GDP and various concentrations of a tested peptide in the final volume of 1 mL, for 60 min. Non-specific binding was determined using 10 µM GTPγS, and the basal binding was determined in the absence of a tested peptide. Incubations were terminated by rapid filtration through the GF/B Whatman glass fiber strips and the bound radioactivity was measured in a liquid scintillation counter. Five independent experiments were carried out. The data were analyzed by a nonlinear least square regression analysis computer program Graph Pad PRISM 5.0 (GraphPad Software Inc., San Diego, CA, USA).

[12] = biological target: T2, CHO-K1 OPRM1 (μ-opioid receptor (MOP))/β-arrestin 2 (Homo sapiens, UniProt P35372); experiment: PathHunter enzyme complementation assay, β-arrestin 2 recruitment; assay type: cell-based; conditions: for EC50 / %Stim: CHO-K1 OPRM1 β-arrestin 2 cell line; for EC50: mean ± SEM, n = 5; for %Stim: normalized to the maximum stimulation caused by EM-1 (100%)
T2 construct: host or cells: CHO-K1 (CHO-K1 OPRM1 β-arrestin cell line)
T2 sequence (P35372 whole entry): as above
T2 sequence (P32121 whole entry partner): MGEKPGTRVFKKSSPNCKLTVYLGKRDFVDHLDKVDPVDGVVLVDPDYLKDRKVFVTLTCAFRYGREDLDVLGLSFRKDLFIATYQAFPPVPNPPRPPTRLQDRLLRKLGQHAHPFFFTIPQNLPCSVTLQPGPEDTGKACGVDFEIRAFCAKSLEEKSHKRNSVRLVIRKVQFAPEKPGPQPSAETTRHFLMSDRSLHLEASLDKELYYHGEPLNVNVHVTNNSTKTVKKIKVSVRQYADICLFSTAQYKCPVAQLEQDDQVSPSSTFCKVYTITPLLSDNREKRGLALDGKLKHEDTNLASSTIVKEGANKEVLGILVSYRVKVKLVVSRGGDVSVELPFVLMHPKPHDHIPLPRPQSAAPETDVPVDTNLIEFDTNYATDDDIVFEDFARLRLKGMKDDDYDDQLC
Protocol: Since in most studies reported in the introduction, β-arrestin 2 was used, for easy comparison we decided to characterize this isoform, despite being the minority as compared to β-arrestin 1 in most cells, including neurons. The use of β-arrestin 2 is supported by its similarity in opioid receptor binding with β-arrestin 1 [37, 50].
Measurement of β-arrestin 2 recruitment. β-arrestin 2 recruitment at MOP was measured using the DiscoveRxPathHunter® β-arrestin kit (DiscoveRx, Fremont, CA, USA) according to manufacturer’s recommendations and previously published procedure. CHO cells were engineered to co-express the ProLink™ (PK) tagged GPCR (GPCR-PK) and the enzyme acceptor (EA) tagged β-arrestin 2 (β-arrestin-EA) (CHO-K1 OPRM1 β-arrestin cell line). Activation of the GPCR-PK induces β-arrestin-EA recruitment, forcing complementation of the two β-galactosidase enzyme fragments (EA and PK). The resulting functional enzyme hydrolyzes substrate to generate a chemiluminescent signal which was measured by luminometry. Briefly, 20 μL of PathHunter cells as taken from the kit were seeded in each well and incubated overnight at 37 °C. […] Detection Reagent Working Solution (12 μL) was added and incubation was continued for 60 min at rt. Chemiluminescent signal was read using a Viewlux imaging plate reader (PerkinElmer, Cambridge, MA, USA).

[13] = tested on: MOP; design: method as in PMID 31351108; conditions: Gαi2 and GαoA; ref [43]; cited from earlier work

Compound | KOP pEC50 (CL95%) [1] | Ki [2] [nM] | Enzymatic stability Area [%] 120 min DPP IV [3] [%] | MOP pEC50 (CL95%) [4] | MOP α±SEM [4] | Ki [5] [nM] | MOP/G-protein α±SEM [6] | MOP/G-protein pEC50 (CL95%) [6] | DOP pEC50 (CL95%) [7] | MOP/β-arrestin 2 pEC50 (CL95%) ([8]; BRET, [45] (C-33)) | Ki [9] [nM] | Enzymatic stability Area [%] 120 min Homogenate [10] [%] | KOP α±SEM [1] | DOP α±SEM [7] | EC50 [11] [nM] | %Stim ([11]; CHO-hMOP) [%] | EC50 [12] [nM] | %Stim [12] | other results
Tyr-Pro-Phe-Phe-NH2 (YPFF-NH2) [EM-2, reference compound] | inactive | 2.5 ± 0.05 | 1.9±0.03 | 7.83 | 1.00 | > 1000 | 1.00 | 7.32 | inactive | 7.20 | > 1000 | 6.5±0.15 |  |  |  |  |  |  | MOP/β-arrestin 2 α±SEM ([8]; BRET, maximal effect, ref [44], [45] (C-33)): 1.00; bias factor (CL95%) ([8]; calculated by using EM-2 as a standard unbiased ligand, ref [44], [45] (C-33)): 0.00
Dyn A: reference agonist in calcium mobilization assay (KOP) |  |  |  | 6.67 | 0.83±0.10 |  |  |  | 7.73 |  |  |  | 1.00 | 0.99±0.04 |  |  |  |  | 
Cc1cc(O)cc(C)c1C[C@H](N)C(=O)N[C@@H]1CCCCNC(=O)C[C@@H](C(N)=O)NC(=O)[C@H](Cc2ccccc2)NC1=O [C-33, Dmt-c[D-Lys-Phe-Asp]NH2] (H-[Dmt][dK]FD-NH2; lactam 2-4) |  |  | 91.1±4.21 |  |  |  |  |  |  |  |  | 89±2.27 |  |  | 0.0794 | 88 ± 3 | 2.51 | 156% and 156 ± 3 % | 
Cc1cc(O)cc(C)c1C[C@H](N)C(=O)N[C@@H]1CCCCNC(=O)C[C@@H](C(N)=O)NC(=O)[C@H](Cc2ccc(C(F)(F)F)cc2)NC(=O)[C@H](Cc2ccccc2)NC1=O [F-81, Dmt-c[D-Lys-Phe-p-CF3-Phe-Asp]NH2] (H-[Dmt][dK]F[Phe(4-CF3)]D-NH2; lactam 2-5) | 8.22 | 2.4 | 92.1±3.27 | 8.19 | 0.8±0.05 | 31.1 | 0.82±0.04 | 8.28 | inactive | inactive | > 1000 | 90.7±3.14 | 0.63±0.04 |  | 0.112 | 68 ± 1 | 0.398 | 41% and 41 ± 15 % | Class ([11]; CHO-hMOP, [35S]GTPγS binding): high efficacy partial agonist; higher potency than the reference EM-2 ([4]; calcium mobilization assay, MOP, ref [44],[45]): 2 fold; receptor/β-arrestin interaction (in words) ([8]; BRET, ref [44]): did not promote receptor/β-arrestin interaction; agonist behaviour, β-arrestin 2 recruitment (in words) ([12]; PathHunter, compared to EM-1): low efficacy partial agonist
DPDPE | inactive |  |  | inactive |  |  |  |  | 7.33 |  |  |  |  | 1.00 |  |  |  |  | 
COc1ccsc1CNCC[C@]1(c2ccccn2)CCOC2(CCCC2)C1 [(S)-TRV130] |  |  |  |  |  |  |  |  |  |  |  |  |  |  |  |  |  |  | G protein activation, less potent compared to its (R)-isomer [13]: 90 fold
